# Measurements published in patent US11000515B2, “Compounds that interact with the Ras superfamily for the treatment of cancers, inflammatory diseases, rasopathies, and fibrotic disease” (Shy Therapeutics LLC, priority 2017, dated 2021).
# Read-outs that look alike come from different tables or passages of the source.
# What was measured:
# [1] = target: KRas G12D/Q61H double mutant (Homo sapiens (Human), UniProt P01116, G12D/Q61H); assay: Ras GTP binding domain inhibition assay (labeled GTP)
# Procedure: (§1) Buffer-I: • 50 mM Tris, pH 7.5 • 150 mM NaCl (optional) • 1 mM MgCl2 • 1 mM DTT. • KRas G12D mutant protein was expressed as a His-tagged protein. Purified His-KRas G12D protein was diluted in buffer-I to a final concentration of 3-10 μg/ml. • 200 μl of the diluted His-KRas G12D protein was added to a nickel coated 96 well plate and incubated overnight at 4° C. • The next day, wells were washed 3× in 200 μl of Buffer-I. • Then 200 μl of Buffer-I were added to each well in the presence of 1% DMSO. • Tested compounds were added to the protein-coated wells at a concentration of 20 μM, and incubated for 3 hours at room temperature. While performing IC50 measurements a serial dilution of all tested concentrations was prepared.
# (§2) Then 22 μl of Cy3-GTP or Cy5-GTP was added to each well. The labeled GTP was incubated for 45 min. at room temperature. • Following GTP incubation, wells were washed 3× in Buffer-I, and 200 μl of Buffer-I were added to each well. • Following washes, the amount of bound labeled-GTP was measured with an Eppendorf AF2200 plate reader.
# (§3) By substituting KRas G12D mutant protein with KRas G12C mutant, KRas wild type, KRas Q61H mutant, KRas G12D/Q61H double mutant or KRas G12C/Q61H double mutant under the assay conditions described above, KRas G12C mutant KRas wild type, KRas Q61H mutant, KRas G12D/Q61H double mutant and KRas G12C/Q61H double mutant inhibition, respectively, were each determined.
# KRas Q61H mutant = KRas Q61H mutant (Homo sapiens (Human), UniProt P01116, Q61H); assay: as above; conditions: 20 μM compound
# Procedure: as §1, §2, §3
# [2] = system: IL6 production in RAW 264.7 macrophage cell line; assay: Mouse IL6 quantification assay (LPS-stimulated RAW 264.7, ELISA); type: cell-based; conditions: RAW264.7, LPS-stimulated RAW 264.7 macrophage cell line, read-out: IL-6 % Inhibition at 30 μM
# [3] = system: TNFα production in RAW 264.7 macrophage cell line; assay: Mouse TNF alpha quantification assay (LPS-stimulated RAW 264.7, ELISA); type: cell-based; conditions: RAW264.7, LPS-stimulated RAW 264.7 macrophage cell line, read-out: TNF-α % Inhibition at 30 μM
# KRas G12D mutant protein = KRas G12D mutant protein (Homo sapiens (Human), UniProt P01116, G12D); assay: Ras GTP binding domain inhibition assay (labeled GTP)
# Procedure: The following method was developed as specific assay for KRas G12D mutant protein.
# as §1, §2
# KRas G12C mutant = KRas G12C mutant (Homo sapiens (Human), UniProt P01116, G12C); assay: as above
# Procedure: as §1, §2, §3
# KRas wild type = KRas wild type (Homo sapiens (Human), UniProt P01116); assay: as above
# Procedure: as §1, §2, §3
# [4] = target: KRas G12C/Q61H double mutant (Homo sapiens (Human), UniProt P01116, G12C/Q61H); assay: as above
# Procedure: as §1, §2, §3
# [5] = compound at 20 μM, read-out: % Inhibition at 20 μM, KRas G12D Q61H
# [6] = 20 μM compound, read-out: % Inhibition at 20 μM, KRas G12D Q61H
# [7] = 20 μM, read-out: KRas G12D Q61H % Inh.
# Chain of KRas G12D/Q61H double mutant (P01116-2 other isoform, or with tags, fused parts or gaps G12D/Q61H): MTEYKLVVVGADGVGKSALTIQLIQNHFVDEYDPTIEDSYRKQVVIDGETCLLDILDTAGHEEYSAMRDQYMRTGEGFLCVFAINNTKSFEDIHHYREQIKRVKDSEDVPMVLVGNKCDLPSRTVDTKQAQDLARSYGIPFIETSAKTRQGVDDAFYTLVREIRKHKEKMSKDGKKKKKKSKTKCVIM
# Chain of KRas Q61H mutant (P01116-2 other isoform, or with tags, fused parts or gaps Q61H): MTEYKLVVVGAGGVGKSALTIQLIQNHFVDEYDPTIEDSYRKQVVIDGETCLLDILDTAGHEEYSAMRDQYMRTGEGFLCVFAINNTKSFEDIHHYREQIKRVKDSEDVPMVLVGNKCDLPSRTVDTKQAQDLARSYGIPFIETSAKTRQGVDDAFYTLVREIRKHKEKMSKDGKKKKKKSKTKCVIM
# Chain of KRas G12C/Q61H double mutant (P01116-2 other isoform, or with tags, fused parts or gaps G12C/Q61H): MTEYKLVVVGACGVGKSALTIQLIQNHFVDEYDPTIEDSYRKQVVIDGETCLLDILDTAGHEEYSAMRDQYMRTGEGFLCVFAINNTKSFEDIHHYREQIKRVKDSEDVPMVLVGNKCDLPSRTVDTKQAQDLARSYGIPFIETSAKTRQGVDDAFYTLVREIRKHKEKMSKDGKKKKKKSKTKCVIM
# Chain of KRas G12C mutant (P01116-2 other isoform, or with tags, fused parts or gaps G12C): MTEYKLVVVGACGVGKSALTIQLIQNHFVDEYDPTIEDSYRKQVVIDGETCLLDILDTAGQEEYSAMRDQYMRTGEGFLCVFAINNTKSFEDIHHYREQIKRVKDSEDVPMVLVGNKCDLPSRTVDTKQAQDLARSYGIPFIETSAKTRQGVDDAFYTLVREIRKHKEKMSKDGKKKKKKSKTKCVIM
# Chain of KRas G12D mutant protein (P01116-2 other isoform, or with tags, fused parts or gaps G12D): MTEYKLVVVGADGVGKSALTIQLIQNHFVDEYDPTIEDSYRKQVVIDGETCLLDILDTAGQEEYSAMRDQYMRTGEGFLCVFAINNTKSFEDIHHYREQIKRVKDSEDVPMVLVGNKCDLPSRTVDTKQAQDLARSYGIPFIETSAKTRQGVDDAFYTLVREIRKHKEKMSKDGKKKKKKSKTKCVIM
# Chain of KRas wild type (P01116-2 other isoform, or with tags, fused parts or gaps): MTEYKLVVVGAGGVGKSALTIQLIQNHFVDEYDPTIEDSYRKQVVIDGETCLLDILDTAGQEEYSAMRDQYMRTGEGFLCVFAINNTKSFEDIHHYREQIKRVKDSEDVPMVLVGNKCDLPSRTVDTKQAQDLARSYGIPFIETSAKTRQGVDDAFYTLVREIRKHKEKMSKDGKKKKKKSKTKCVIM
smiles,measurement,setting,value
N#Cc1ccc(C2CCCN2c2ccco2)cc1C(F)(F)F (stereo not shown),inhibition at 20 µM,[1]; [5],1 to 25%
Oc1nc(-c2ccccn2)nc2c(C3CCCC3)csc12,"% Inhibition at 20 μM, KRas Q61H",KRas Q61H mutant,D (D = 76-100% inhibition)
COc1cc(CCNC(=O)c2csc3nc(-c4ccccn4)nc(N4CCOCC4)c23)ccn1,inhibition at 30 µM,[2],1 to 25%
same,inhibition at 30 µM,[3],0%
Nc1nc(-c2ccccn2)nc2scc(Br)c12,inhibition at 30 µM,[2],1 to 25%
same,inhibition at 30 µM,[3],0%
COCCN(Cc1ccccc1)CC(O)OCC(c1ccc(OC)cc1)c1ccc(OC)cc1 (stereo not shown),inhibition at 20 µM,[1]; [6],1 to 25%
O=C(c1csc2c(O)nc(-c3ccccn3)nc12)N1CCN(c2cccnc2)CC1,inhibition at 20 µM,KRas G12D mutant protein; compound at 20 μM,51 to 75%
same,inhibition at 20 µM,KRas G12C mutant; compound at 20 μM,25 to 50%
same,inhibition at 20 µM,[1]; [5],51 to 75%
same,inhibition at 20 µM,KRas wild type; compound at 20 μM,76 to 100%
CCC(C)c1csc2c(O)nc(-c3ccccn3)nc12 (stereo not shown) [drawing 2332],inhibition at 30 µM,[2],26 to 50%
same,inhibition at 30 µM,[3],1 to 25%
O=C(CCCc1cccnc1)N1CCCc2c(O)nc(-c3ccccn3)nc21,inhibition at 20 µM,KRas G12D mutant protein; compound at 20 μM,51 to 75%
same,inhibition at 20 µM,KRas G12C mutant; compound at 20 μM,51 to 75%
same,inhibition at 20 µM,[1]; [5],51 to 75%
same,inhibition at 20 µM,KRas wild type; compound at 20 μM,25 to 50%
CC(C)(C(=O)Nc1cc(-c2ccccn2)nc2sccc12)c1ccc(C#N)cc1,inhibition at 30 µM,[2],76 to 100%
same,inhibition at 30 µM,[3],1 to 25%
COc1ccccc1OCC(=O)Nc1nnc(-c2ccccn2)[nH]1 [drawing 2004],inhibition at 30 µM,[2],26 to 50%
same,inhibition at 30 µM,[3],0%
COCCNc1nc(-c2nccn2C)nc2sc(-c3ccccc3)c(-c3cccnc3)c12,inhibition at 20 µM,KRas G12D mutant protein; 20 μM compound,25 to 50%
same,inhibition at 20 µM,KRas G12C mutant; 20 μM compound,25 to 50%
same,inhibition at 20 µM,KRas wild type; 20 μM compound,51 to 75%
O=C(NCCc1cnc(O)cn1)c1csc2nc(-c3ccccn3)nc(N3CCS(=O)(=O)CC3)c12,inhibition at 30 µM,[2],51 to 75%
same,inhibition at 30 µM,[3],0%
Cc1sc2c(O)nc(-c3nccn3C)nc2c1-c1ccccc1Cl,inhibition at 20 µM,KRas G12C mutant; 20 μM compound,1 to 25%
same,inhibition at 20 µM,KRas wild type; 20 μM compound,25 to 50%
COCCNc1nc(-c2cccc(C)n2)nc2sc(-c3ccccc3)c(-c3ccccc3)c12,inhibition at 30 µM,[2],26 to 50%
same,inhibition at 30 µM,[3],26 to 50%
CCOC(=O)c1sc(N(C2CC2)S(=O)(=O)c2cc(F)ccc2F)nc1C,inhibition at 20 µM,[1]; [5],25 to 50%
O=C(c1csc2c(O)nc(-c3ccccn3)nc12)N1CCNC(Cc2cccc(F)c2)C1 (stereo not shown),inhibition at 30 µM,[2],26 to 50%
same,inhibition at 30 µM,[3],1 to 25%
O=C(NCC(F)(F)F)c1ccc(CN(Cc2cc(Cl)cc3c2OCOC3)C2CC2)cc1,inhibition at 20 µM,[1]; [6],25 to 50%
CC(C)COc1ccc(-c2csc3c(O)nc(-c4nccn4C)nc23)cn1,inhibition at 30 µM,[2],76 to 100%
same,inhibition at 30 µM,[3],76 to 100%
Oc1nc(-c2ccccn2)nc2c(-c3ccccc3)csc12,inhibition at 20 µM,KRas G12C mutant; compound at 20 μM,1 to 25%
CC(C)c1ccc(NC(=O)CCc2c(O)cc(-c3ccccn3)nc2O)cc1,inhibition at 20 µM,[1]; [7],51 to 75%
CC(C)COc1ccc(-c2csc3c(O)nc(-c4ccccn4)nc23)nc1,inhibition at 30 µM,[2],76 to 100%
same,inhibition at 30 µM,[3],51 to 75%
Brc1csc2nc(-c3ccccn3)nc(Br)c12,inhibition at 30 µM,[2],76 to 100%
same,inhibition at 30 µM,[3],76 to 100%
CCOc1cc(CN(C(=O)CCc2nc(-c3ccsc3)no2)C2CC2)ccc1OC(F)F,inhibition at 20 µM,[1]; [6],25 to 50%
CCC(C)c1csc2c(O)nc(-c3ccccn3)nc12 (stereo not shown) [drawing 3492],inhibition at 20 µM,KRas G12D mutant protein; 20 μM compound,25 to 50%
same,inhibition at 20 µM,KRas G12C mutant; 20 μM compound,25 to 50%
same,inhibition at 20 µM,[4]; 20 μM compound,51 to 75%
same,inhibition at 20 µM,[1]; [6],51 to 75%
same,inhibition at 20 µM,KRas wild type; 20 μM compound,25 to 50%
same,inhibition at 20 µM,KRas Q61H mutant,51 to 75%
O=C(NCCc1cncs1)c1csc2nc(-c3ccccn3)nc(N3CCOCC3)c12,inhibition at 20 µM,[4]; compound at 20 μM,1 to 25%
Cc1sc2nc(-c3cnccn3)[nH]c(=O)c2c1-c1ccccc1,inhibition at 20 µM,[1]; [5],25 to 50%
COc1ccccc1OCC(=O)Nc1nnc(-c2ccccn2)[nH]1 [drawing 2552],inhibition at 20 µM,[1]; [7],51 to 75%
COc1nc(-c2ccccn2)nc2c(C)c(C(=O)N3CCN(c4ccccc4)CC3)sc12,inhibition at 20 µM,[4]; 20 μM compound,51 to 75%
same,inhibition at 20 µM,[1]; [6],51 to 75%
same,inhibition at 20 µM,KRas Q61H mutant,51 to 75%
Oc1nc(-c2ccccn2)nc(Oc2cccc(C(F)(F)F)c2)c1O,"% Inhibition at 20 μM, KRas G12C",KRas G12C mutant; 20 μM compound,B (B = 25-50% inhibition)
COc1ccc(C(=O)Nc2nc(-c3ccccn3)cs2)cn1,inhibition at 30 µM,[2],76 to 100%
same,inhibition at 30 µM,[3],51 to 75%
